Test results from paper PMC10992195, “Identification, heterologous expression and characterization of a new unspecific peroxygenase from Marasmius fiardii PR-910” (Bioresources and Bioprocessing, 2024).
Structures can show the parent of a compound that is named as a salt. Where two headings read alike, the source gives them in different places. One block for each compound: values may come before it.

Tests used:
rMfiUPO [1] = system: T1, rMfiUPO; settings: 2 mM H2O2 co-substrate; 30 °C; optimal pH (pH 4.0 optimum in text; pH 4.5 sodium citrate in Fig. 4 legend)
T1 construct: gene MfiUPO

rMfiUPO [2] = system: T2, rMfiUPO; assay: spectrophotometric 4-nitrocatechol formation, […] nm, Michaelis-Menten fit; type: biochemical, Marasmius fiardii PR-910; settings: 2 mM H2O2 co-substrate; 30 °C; pH 7.0 potassium phosphate
T2 construct: gene MfiUPO; full-length codon-optimised gene with native signal peptide, secreted by Pichia pastoris X33 (pPICZ-A); purified, glycosylated, 40-55 kDa smear, about 35 kDa after Endo H; short-type UPO, heme-thiolate

rMfiUPO [3] = system: T2, rMfiUPO; assay: spectrophotometric veratraldehyde formation, […] nm, Michaelis-Menten fit; type: biochemical, Marasmius fiardii PR-910; settings: 2 mM H2O2 co-substrate; 30 °C; pH 6.0 potassium phosphate

- Km (rMfiUPO [1]): 22 ± 7 µM
Structure (SMILES): CCn1c(=NN=c2sc3cc(S(=O)(=O)O)ccc3n2CC)sc2cc(S(=O)(=O)O)ccc21 [ABTS, 2,2ʹ-azinobis (3-ethylbenzothiazoline-6-sulfonic acid) diammonium salt]

- Km (rMfiUPO [2]): 93 ± 14 µM
Structure (SMILES): O=[N+]([O-])c1ccc2c(c1)OCO2 [NBD, 5-nitro-1,3-benzodioxole]

Structure (SMILES): COc1ccc(CO)cc1OC [VA]
- Km (rMfiUPO [3]): 392 ± 109 µM
